Values joined by “and” are separate entries in the source; they are usually repeats but may differ in a detail not shown here. Equal entries are not always repeated.
Target: Glycogen synthase kinase-3 alpha (Homo sapiens, UniProt P49840)
Assay: TR-FRET Assay
Procedure: The assay was performed in a white, 384 well, low volume, flat bottom plate (Grenier). […] The kinase activity was quenched with 2 μL of 250 mM EDTA. A 10 μL volume of 40 nM Strepavidin-d2, 2 nM Tb2+-pSer641 antibody in TR-FRET Detection Buffer (Invitrogen) was then added.

Chain of Glycogen synthase kinase-3 alpha (P49840 whole entry): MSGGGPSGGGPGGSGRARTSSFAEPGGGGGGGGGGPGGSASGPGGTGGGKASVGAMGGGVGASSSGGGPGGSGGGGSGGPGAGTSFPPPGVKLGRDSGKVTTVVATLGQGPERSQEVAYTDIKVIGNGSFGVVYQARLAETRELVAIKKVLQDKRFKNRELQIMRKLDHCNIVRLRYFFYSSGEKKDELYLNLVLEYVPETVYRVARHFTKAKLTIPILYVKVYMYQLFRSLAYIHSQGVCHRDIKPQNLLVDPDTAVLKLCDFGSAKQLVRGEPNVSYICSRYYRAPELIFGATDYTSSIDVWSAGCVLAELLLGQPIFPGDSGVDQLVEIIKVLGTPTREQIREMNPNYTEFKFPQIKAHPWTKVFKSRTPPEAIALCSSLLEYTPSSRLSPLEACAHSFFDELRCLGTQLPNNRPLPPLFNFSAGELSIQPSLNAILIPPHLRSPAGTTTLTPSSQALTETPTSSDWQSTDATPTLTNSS

Structure (SMILES) | IC50
CC[C@@]1(c2cccc(Oc3cncnc3)c2)C2=CN=NC2NC2=C1C(=O)CC(C)(C)C2 (stereo partly drawn) [US20250313563, Compound 945939] | 100 to 1000 nM
CC[C@@]1(c2cccc(Nc3ncccn3)c2)C2=CN=NC2NC2=C1C(=O)CC(C)(C)C2 (stereo partly drawn) [US20250313563, Compound 945958] | 1000 to 5000 nM
CC[C@]1(c2cccc(S(=O)(=O)C3COC3)c2)C2=CN=NC2NC2=C1C(=O)CC(C)(C)C2 (stereo partly drawn) [US20250313563, Compound 946003] | 100 to 1000 nM
CC[C@]1(c2cccc(S(=O)(=O)C3CC3)c2)C2=CN=NC2NC2=C1C(=O)NC(C)(C)C2 (stereo partly drawn) [US20250313563, Compound 946004] | 100 to 1000 nM
CCn1nccc1-c1cccc([C@@]2(CC)C3=CN=NC3NC3=C2C(=O)CC(C)(C)C3)c1 (stereo partly drawn) [US20250313563, Compound 946090] | 100 to 1000 nM
CC[C@]1(c2cccc(-c3ccnn3C(C)C)c2)C2=CN=NC2NC2=C1C(=O)CC(C)(C)C2 (stereo partly drawn) [US20250313563, Compound 946092] | 1000 to 5000 nM
CC[C@]1(c2cccc(-c3ccnn3CCC(C)C)c2)C2=CN=NC2NC2=C1C(=O)CC(C)(C)C2 (stereo partly drawn) [US20250313563, Compound 946096] | 100 to 1000 nM
CC[C@]1(c2cccc(-c3ccnc(C)c3)c2)C2=CN=NC2NC2=C1C(=O)CC(C)(C)[C@@H]2F (stereo partly drawn) [US20250313563, Compound 946101] | 1000 to 5000 nM
CC[C@@]1(c2cccc(-c3ccnc(C)c3)c2)C2=CN=NC2NC2=C1C(=O)CC(C)(C)[C@@H]2F (stereo partly drawn) [US20250313563, Compound 946102] | 1000 to 5000 nM
CC[C@]1(c2cccc(-c3ccnc(C)c3)c2)C2=CN=NC2NC2=C1C(=O)C[C@]1(CCOC1)C2 (stereo partly drawn) [US20250313563, Compound 947412] | 1000 to 5000 nM
CC[C@]1(c2cccc(-c3cnn4c3CCCC4)c2)C2=CN=NC2NC2=C1C(=O)NC(C)(C)C2 (stereo partly drawn) [US20250313563, Compound 947415] | 1000 to 5000 nM
CC[C@]1(c2cccc(Oc3ncccn3)c2)C2=CN=NC2NC2=C1C(=O)CC(C)(C)C2 (stereo partly drawn) [US20250313563, Compound 947818] | 100 to 1000 nM
CC[C@]1(c2cccc(-c3ccnn3C)c2)C2=CN=NC2NC2=C1C(=O)N[C@@](C)(COC)C2 (stereo partly drawn) [US20250313563, Compound 947907] | 1000 to 5000 nM
CC[C@]1(c2cccc(-c3ccnn3C)c2)C2=CN=NC2NC2=C1C(=O)N[C@]1(CCOC1)C2 (stereo partly drawn) [US20250313563, Compound 948014] | 100 to 1000 nM
CC[C@]1(c2cccc(-c3ccncc3C)c2)C2=CN=NC2NC2=C1C(=O)NC1(CCCC1)C2 (stereo partly drawn) [US20250313563, Compound 948021] | 100 to 1000 nM
CC[C@]1(c2cccc(-c3ccncc3C)c2)C2=CN=NC2NC2=C1C(=O)NC(C)(COC)C2 (stereo partly drawn) [US20250313563, Compound 948127] | 100 to 1000 nM
CC[C@]1(c2cccc(-c3c(F)cncc3OC)c2)C2=CN=NC2NC2=C1C(=O)NC(C)(C)C2 (stereo partly drawn) [US20250313563, Compound 948145] | 100 to 1000 nM
CC[C@@]1(c2cccc(-c3ccnc(C)c3)c2)C2=CN=NC2NC2=C1C(=O)N[C@]1(CCOC1)C2 (stereo partly drawn) [US20250313563, Compound 948148] | 1000 to 5000 nM
CC[C@]1(c2cccc(-c3ccnn3C)c2)C2=CN=NC2NC2=C1C(=O)N[C@@]1(CCCOC1)C2 (stereo partly drawn) [US20250313563, Compound 948366] | 1000 to 5000 nM
CC[C@]1(c2cccc(-c3ccncc3C)c2)C2=CN=NC2NC2=C1C(=O)NC1(CCOCC1)C2 (stereo partly drawn) [US20250313563, Compound 948367] | 100 to 1000 nM
CC[C@@]1(c2cccc(C(F)(F)F)c2)C2=CN=NC2NC2=C1C(=O)N(c1cncnc1)CC2 (stereo partly drawn) [US20250313563, Compound 948380] | 100 to 1000 nM
CC[C@]1(c2cccc(-c3c(F)cncc3F)c2)C2=CN=NC2NC2=C1C(=O)NC(C)(C)C2 (stereo partly drawn) [US20250313563, Compound 948514] | 1000 to 5000 nM

Structure (SMILES) | IC50
CC[C@]1(c2cccc(-c3ccnn3C)c2)C2=CN=NC2NC2=C1C(=O)NC1(CCC1)C2 (stereo partly drawn) [US20250313563, Compound 948522] | 100 to 1000 nM
CC[C@]1(c2cccc(-c3ccnc(C)c3)c2)C2=CN=NC2NC2=C1C(=O)NC1(CCOCC1)C2 (stereo partly drawn) [US20250313563, Compound 948524] | 1000 to 5000 nM
CC[C@]1(c2cccc(-c3ccnc(C)c3)c2)C2=C(CC(C)(C)NC2=O)NC2N=NC(C(F)(F)F)=C21 (stereo partly drawn) [US20250313563, Compound 948773] | 1000 to 5000 nM
CCC1(c2cccc(OCC(F)F)c2)C2=CN=NC2NC2=C1C(=O)CC(C)(C)C2 (stereo not drawn) [US20250313563, Compound 948793] | < 100 nM and 100 to 1000 nM
CC[C@]1(c2cccc(-c3cnn(C)c3C(F)(F)F)c2)C2=CN=NC2NC2=C1C(=O)NC(C)(C)C2 (stereo partly drawn) [US20250313563, Compound 948826] | 1000 to 5000 nM
CC[C@]1(c2cccc(-c3cn(C)nc3C)c2)C2=CN=NC2NC2=C1C(=O)N(C)C(C)(C)C2 (stereo partly drawn) [US20250313563, Compound 949008] | 1000 to 5000 nM
CC[C@]1(c2cccc(-c3cnn(CCOC)c3)c2)C2=CN=NC2NC2=C1C(=O)NC(C)(C)C2 (stereo partly drawn) [US20250313563, Compound 949114] | 1000 to 5000 nM
CC[C@@]1(c2cccc(C(F)(F)C(F)(F)F)c2)C2=CN=NC2NC2=C1C(=O)CC(C)(C)C2 (stereo partly drawn) [US20250313563, Compound 949268] | 1000 to 5000 nM
CCc1cccc([C@]2(CC)C3=CN=NC3NC3=C2C(=O)CC(C)(C)C3)c1 (stereo partly drawn) [US20250313563, Compound 949391] | 1000 to 5000 nM
CC[C@]1(c2cccc(-c3cnn(C4CC4(F)F)c3)c2)C2=CN=NC2NC2=C1C(=O)NC(C)(C)C2 (stereo partly drawn) [US20250313563, Compound 949393] | 1000 to 5000 nM
CC[C@]1(c2cccc(-c3cnn(C)c3F)c2)C2=CN=NC2NC2=C1C(=O)NC(C)(C)C2 (stereo partly drawn) [US20250313563, Compound 949395] | 1000 to 5000 nM
CC[C@@]1(c2cccc(C3CCC3)c2)C2=CN=NC2NC2=C1C(=O)CC(C)(C)C2 (stereo partly drawn) [US20250313563, Compound 949514] | 1000 to 5000 nM
CC[C@@]1(c2cccc(-c3ccncc3F)c2)C2=C(CC(C)(C)NC2=O)NC2N=NC(F)=C21 (stereo partly drawn) [US20250313563, Compound 949651] | 100 to 1000 nM
CC[C@@]1(c2cccc(-c3ccnc(C)c3)c2)C2=C(CC(C)(C)NC2=O)NC2N=NC(C(F)F)=C21 (stereo partly drawn) [US20250313563, Compound 950163] | < 100 nM and 100 to 1000 nM
CC[C@]1(c2cccc(C(F)(F)F)c2)C2=CN=NC2NC2=C1C(=O)C[C@]1(CCN(C)C1=O)C2 (stereo partly drawn) [US20250313563, Compound 950330] | 100 to 1000 nM
CC[C@@]1(c2cccc(C(F)(F)F)c2)C2=CN=NC2NC2=C1C(=O)C[C@@]1(CCNC1=O)C2 (stereo partly drawn) [US20250313563, Compound 950331] | 100 to 1000 nM
CC[C@@]1(c2cccc(-c3c(C)cnn3C)c2)C2=CN=NC2NC2=C1C(=O)NC(C)(C)C2 (stereo partly drawn) [US20250313563, Compound 952021] | < 100 nM and 100 to 1000 nM
CC[C@@]1(c2cccc(N(C)c3ncccn3)c2)C2=C(N=NC2)NC2=C1C(=O)C(C)(C)C2 [US20250313563, Compound 952205] | 1000 to 5000 nM
CC[C@@]1(c2cccc(-c3ccnc4cccnc34)c2)C2=CN=NC2NC2=C1C(=O)NC(C)(C)C2 (stereo partly drawn) [US20250313563, Compound 952560] | < 100 nM and 100 to 1000 nM
CC[C@@]1(c2cccc(-c3ccnn3C)c2)C2=CN=NC2NC2=C1C(=O)CC(C)(C)[C@@H]2F (stereo partly drawn) [US20250313563, Compound 957509] | 100 to 1000 nM
CC[C@@]1(c2cccc(-c3cnn(C)c3)c2)C2=CN=NC2NC2=C1C(=O)CC(C)(C)[C@H]2F (stereo partly drawn) [US20250313563, Compound 957510] | 1000 to 5000 nM
